Test system: Kuramochi cells
Assay: BrdU Cell Proliferation Assay
Assay type: cell-based
Conditions: read-out: BrdU - KURAMOCHI.1: IC50
Outline: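 Kuramochi cells were seeded at 2,000 cells/well, adhered overnight, then treated with a 10-point, 3-fold compound dilution series for 4 days. Proliferation was measured by a 1-hour BrdU pulse, anti-BrdU peroxidase colorimetric ELISA and 450 nm absorbance. Values were background-subtracted and normalized to DMSO wells.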

SMILES	IC50 [µM]
CC1(C)C[C@@H]1C(=O)N1CC2(CN(C(=O)c3cnn(Cc4ccccc4)c3)CC2C(=O)Nc2ncc(-c3ccccc3)o2)C1 (stereo partly shown) [I-93]	> 10
CNC(=O)[C@@H](NC(=O)[C@@H]1CN(C(=O)c2cccnc2)CC12CN(C(=O)[C@H]1CC1(C)C)C2)[C@@H](C)OCc1ccccc1 [I-42A]	> 10
CNC(=O)[C@@H](NC(=O)[C@@H]1CN(C(=O)c2cnn(Cc3ccccc3)c2)CC12CN(C(=O)CC(C)C)C2)[C@@H](C)OCc1ccccc1 [I-69A]	> 10
CNC(=O)[C@H](CCCC1CCCCC1)NC(=O)[C@@H]1CN(C(=O)c2cnn(Cc3ccccc3)c2)CC12CN(C(=O)[C@H]1CC1(C)C)C2 [I-155A]	> 10
CO[C@H]1COCC[C@@H]1NC(=O)[C@H]1CN(C(=O)c2cnn(Cc3ccccc3)c2)CC12CN(C(=O)[C@H]1CC1(C)C)C2 [I-148B]	> 10
CC1(C)C[C@@H]1C(=O)N1CC2(CN(C(=O)c3cnn(Cc4ccccc4)c3)C[C@H]2C(=O)Nc2ccc(Cc3ccccc3)nc2)C1 [I-139, (S)-6-(1-benzyl-1H-pyrazole-4-carbonyl)-N-(6-benzylpyridin-3-yl)-2-((S)-2,2-dimethylcyclopropane-1-carbonyl)-2,6-diazaspiro[3.4]octane-8-carboxamide]	> 10
CNC(=O)[C@@H](NC(=O)[C@@H]1CN(C(=O)c2cnn(Cc3ccccc3)c2)CC12CN(C(=O)C(C)(C)F)C2)[C@@H](C)OCc1ccccc1 [I-90A]	> 10
CC1(C)C[C@@H]1C(=O)N1CC2(CN(C(=O)c3cnn(Cc4ccccc4)c3)C[C@H]2C(=O)N[C@H]2CCN(c3ccccc3)C2)C1 [I-206]	> 10
CNC(=O)[C@@H](NC(=O)[C@@H]1CN(C(=O)c2cnn(Cc3ccccc3)c2)CC12CN(C(=O)CC(F)(F)F)C2)[C@@H](C)OCc1ccccc1 [I-87A]	> 10
CNC(=O)[C@@H](NC(=O)[C@H]1CN(C(=O)c2cnn(Cc3ccccc3)c2)CC12CN(C(=O)C1(c3ccc(C(C)(C)C)cc3)CC1)C2)[C@@H](C)OCc1ccccc1 [I-80B]	> 10
CNC(=O)[C@@H](NC(=O)[C@@H]1CN(C(=O)c2n[nH]c3ccccc23)CC12CN(C(=O)[C@H]1CC1(C)C)C2)[C@@H](C)OCc1ccccc1 [I-112A]	> 10
CNC(=O)[C@@H](NC(=O)[C@H]1CN(C(=O)c2scnc2C(F)(F)F)CC12CN(C(=O)[C@H]1CC1(C)C)C2)[C@@H](C)OCC1CCCCC1 [I-163B]	> 10
CNC(=O)[C@@H](NC(=O)[C@H]1CN(Cc2cnco2)CC12CN(C(=O)[C@H]1CC1(C)C)C2)[C@@H](C)OCc1ccccc1 [I-78B]	> 10
CNC(=O)[C@@H](NC(=O)[C@@H]1CN(Cc2ccncc2)CC12CN(C(=O)[C@H]1CC1(C)C)C2)[C@@H](C)OCc1ccccc1 [I-55A]	> 10
CNC(=O)[C@@H](NC(=O)[C@@H]1CN(C(=O)C2CCNC2)CC12CN(C(=O)[C@H]1CC1(C)C)C2)[C@@H](C)OCc1ccccc1 (stereo partly drawn) [I-70A, (8S)—N-((2S,3R)-3-(benzyloxy)-1-(methylamino)-1-oxobutan-2-yl)-2-((S)-2,2-dimethylcyclopropane-1-carbonyl)-6-(pyrrolidine-3-carbonyl)-2,6-diazaspiro[3.4]octane-8-carboxamide]	> 10
CNC(=O)[C@@H](NC(=O)[C@@H]1CN(C(=O)c2cnn(C)c2)CC12CN(C(=O)[C@H]1CC1(C)C)C2)[C@@H](C)OCc1ccccc1 [I-33A]	> 10
CNC(=O)[C@@H](NC(=O)[C@@H]1CN(C(=O)c2cn[nH]c2)CC12CN(C(=O)[C@H]1CC1(C)C)C2)[C@@H](C)OCC1CCCCC1 [I-66A, (S)—N-((2S,3R)-3-(cyclohexylmethoxy)-1-(methylamino)-1-oxobutan-2-yl)-2-((S)-2,2-dimethylcyclopropane-1-carbonyl)-6-(1H-pyrazole-4-carbonyl)-2,6-diazaspiro[3.4]octane-8-carboxamide]	> 10
CNC(=O)[C@@H](NC(=O)[C@H]1CN(Cc2ccncc2)CC12CN(C(=O)[C@H]1CC1(C)C)C2)[C@@H](C)OCc1ccccc1 [I-55B]	> 10
CNC(=O)[C@@H](NC(=O)[C@H]1CN(C(=O)c2cnn(CC3CCN(C)CC3)c2)CC12CN(C(=O)[C@H]1CC1(C)C)C2)[C@@H](C)OCc1ccccc1 [I-23B]	> 10
CNC(=O)[C@@H](NC(=O)[C@H]1CN(C(=O)c2cnn(Cc3ccc(F)cc3)c2)CC12CN(C(=O)[C@H]1CC1(C)C)C2)[C@@H](C)OCc1ccc(F)cc1 [I-136B]	> 10
CNC(=O)[C@@H](NC(=O)[C@@H]1CN(C(=O)c2cnn(Cc3ccccc3)c2)CC12CN(C(=O)C1(F)CC1)C2)[C@@H](C)OCc1ccccc1 [I-71A]	> 10
C[C@@H](OCc1ccccc1)[C@H](NC(=O)[C@H]1CN(C(=O)c2cnn(Cc3ccccc3)c2)CC12CN(C(=O)[C@H]1CC1(C)C)C2)C(N)=O [I-176B]	> 10
COc1cccc(CNC(=O)[C@@H]2CN(C(=O)c3cnn(Cc4ccccc4)c3)CC23CN(C(=O)[C@H]2CC2(C)C)C3)n1 [I-126A]	> 10
CNC(=O)[C@@H](NC(=O)[C@H]1CN(Cc2n[nH]c3ccccc23)CC12CN(C(=O)[C@H]1CC1(C)C)C2)[C@@H](C)OCc1ccccc1 [I-143]	> 10
CC1(C)C[C@@H]1C(=O)N1CC2(CN(C(=O)c3cnn(Cc4ccccc4)c3)C[C@H]2C(=O)N2CCC(Cc3ccccc3)CC2)C1 [I-58A]	> 10

SMILES	IC50 [µM]
CC1(C)C[C@@H]1C(=O)N1CC2(CN(C(=O)c3cnn(Cc4ccccc4)c3)C[C@@H]2C(=O)N[C@H]2CCCN(C(=O)c3ccccc3)C2)C1 [I-83B]	> 10
CC1(C)C[C@@H]1C(=O)N1CC2(CN(C(=O)c3cnn(Cc4ccccc4)c3)C[C@H]2C(=O)NC2CCNC(=O)C2)C1 (stereo partly shown) [I-223]	> 10
CO[C@H]1COCC[C@@H]1NC(=O)[C@H]1CN(C(=O)c2cnn(Cc3ccccc3)c2)CC12CN(C(=O)[C@H]1CC1(C)C)C2 [I-131B]	> 10
C[C@@H](OCc1ccccc1)[C@H](NC(=O)C1CN(C(=O)c2cnn(Cc3ccccc3)c2)CC12CN(C(=O)[C@H]1CC1(C)C)C2)C(=O)N1CCNCC1 (stereo partly shown) [I-32]	> 10
CNC(=O)[C@@H](NC(=O)[C@H]1CN(C(=O)c2cnn(Cc3ccccc3)c2)CC12CN(C(=O)[C@H]1CC1(C)C)C2)[C@@H](C)OCC(C)(C)C [I-130B]	> 10
CNC(=O)[C@@H](NC(=O)[C@@H]1CN(C(=O)c2cnn(Cc3ccccc3)c2)CC12CN(C(=O)CC1(COC)CC1)C2)[C@@H](C)OCc1ccccc1 [I-82A]	> 10
CNC(=O)[C@@H](NC(=O)[C@@H]1CN(C(=O)c2cnn(Cc3ccccc3)c2)CC12CN(C(=O)[C@H]1CC1(C)C)C2)[C@@H](C)OCC1CCC(C(F)(F)F)CC1 (stereo partly shown) [I-141A]	0.5 to 5
CC1(C)C[C@@H]1C(=O)N1CC2(CN(C(=O)c3cnn(Cc4ccccc4)c3)C[C@H]2C(=O)N2CCCC(Cc3ccccc3)C2)C1 (stereo partly shown) [I-91A]	> 10
CNC(=O)[C@@H](NC(=O)[C@H]1CN(C(=O)c2scnc2C(C)(C)C)CC12CN(C(=O)[C@H]1CC1(C)C)C2)[C@@H](C)OCC1CCCCC1 [I-231B]	> 10
CNC(=O)[C@@H](NC(=O)[C@@H]1CN(C(=O)c2cnn(Cc3ccccc3)c2)CC12CN(C(=O)C1(C)CC1)C2)[C@@H](C)OCc1ccccc1 [I-67A, (S)-6-(1-benzyl-1H-pyrazole-4-carbonyl)-N-((2S,3R)-3-(benzyloxy)-1-(methylamino)-1-oxobutan-2-yl)-2-(1-methylcyclopropane-1-carbonyl)-2,6-diazaspiro[3.4]octane-8-carboxamide]	> 10
CO[C@@H]1CC[C@H](NC(=O)[C@@H]2CN(C(=O)c3cnn(Cc4ccccc4)c3)CC23CN(C(=O)[C@H]2CC2(C)C)C3)C1 [I-248]	> 10
CNC(=O)[C@@H](NC(=O)[C@@H]1CN(C(=O)c2scnc2C2CCCC2)CC12CN(C(=O)[C@H]1CC1(C)C)C2)[C@@H](C)OCC1CCCCC1 [I-224B]	> 10
CCC(CC)C(=O)N1CC2(CN(C(=O)c3cnn(Cc4ccccc4)c3)C[C@@H]2C(=O)N[C@H](C(=O)NC)[C@@H](C)OCc2ccccc2)C1 [I-74B]	> 10
CC1(C)C[C@@H]1C(=O)N1CC2(CN(C(=O)c3cnn(Cc4ccccc4)c3)C[C@H]2C(=O)N2CCC[C@H](OCC3CCCCC3)C2)C1 [I-236]	> 10
CNC(=O)[C@@H](NC(=O)[C@@H]1CN(C(=O)c2cnc(C)s2)CC12CN(C(=O)[C@H]1CC1(C)C)C2)[C@@H](C)OCC1CCCCC1 [I-156A]	5 to 10
CNC(=O)[C@@H](NC(=O)[C@@H]1CN(C(=O)c2cnn(Cc3ccccc3)c2)CC12CN(C(=O)[C@H]1CC1(C)C)C2)C(C)(C)SCc1ccccc1 [I-171A, (S)-6-(1-benzyl-1H-pyrazole-4-carbonyl)-N—((R)-3-(benzylthio)-3-methyl-1-(methylamino)-1-oxobutan-2-yl)-2-((S)-2,2-dimethylcyclopropane-1-carbonyl)-2,6-diazaspiro[3.4]octane-8-carboxamide]	> 10
CNC(=O)[C@@H](NC(=O)C1CN(C(=O)c2cnn(Cc3cccnc3)c2)CC12CN(C(=O)C1CC1(C)C)C2)[C@@H](C)OCc1ccccc1 (stereo partly shown) [I-15]	> 10
CNC(=O)[C@@H](NC(=O)[C@H]1CN(C(=O)c2cnn(Cc3ccccc3)c2)CC12CN(C(=O)C(C)(C)C)C2)[C@@H](C)OCC1CCCCC1 [I-174B]	> 10
COC(=O)[C@@H](CO)NC(=O)[C@@H]1CN(C(=O)c2cnn(Cc3ccccc3)c2)CC12CN(C(=O)[C@H]1CC1(C)C)C2 [I-187A]	> 10
CNC(=O)[C@@H](NC(=O)[C@@H]1CN(C(=O)c2cncs2)CC12CN(C(=O)CC1CC1)C2)[C@@H](C)OCC1CCCCC1 [I-103A]	> 10
C[C@@H](OCC1CCC(F)(F)CC1)[C@H](NC(=O)[C@@H]1CN(C(=O)c2cn[nH]c2)CC12CN(C(=O)C1(C(F)(F)F)CC1)C2)C(=O)N1CCC(F)(F)CC1 [I-188A]	> 10
CNC(=O)[C@@H](NC(=O)[C@H]1CN(Cc2ccccn2)CC12CN(C(=O)[C@H]1CC1(C)C)C2)[C@@H](C)OCc1ccccc1 [I-40B]	> 10
CNC(=O)[C@@H](NC(=O)[C@H]1CN(C(=O)c2cnn(CC(F)(F)F)c2)CC12CN(C(=O)CC1CC1)C2)[C@@H](C)OCc1ccccc1 [I-43B]	> 10
CNC(=O)[C@@H](NC(=O)[C@@H]1CN(C(=O)c2cnn(Cc3ccccc3)c2)CC12CN(C(=O)CC1CCC1)C2)[C@@H](C)OCc1ccccc1 [I-27A]	> 10

From US12065445B2, “CDK2 inhibitors and methods of using the same” (Cedilla Therapeutics, Inc., priority 2021, dated 2024)
